Measured values from patent publication US10472356B2, “Bicyclic ketone sulfonamide compounds” (AMGEN INC., priority 2015, dated 2019).

Columns and labels:
human Nav1.7 [1] = molecular target: T1, human Nav1.7 (Homo sapiens, UniProt Q15858); assay: Nav 1.7 In Vitro PatchXpress (PX) Assay; assay type: cell-based; settings: HEK 293 cells stably transfected with human Nav1.7; PatchXpress whole cell voltage clamp; partially inactivated state (holding potential yielding 20 to 50% inactivation); read-out: hNav1.7 PX IC50
T1 construct: expressed in transfected cells; host or cells: HEK293
How it was run: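 Whole-cell voltage clamp on HEK 293 cells stably expressing human Nav1.7 (automated patch), holding potential giving 20–50% inactivation; 20 ms pulses to −10 mV at 0.1 Hz. Single compound concentration applied 3 min, peak current inhibition measured; IC50 fitted from 3–5 cells per concentration.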

human Nav1.7 [2] = molecular target: T1, human Nav1.7; assay: Nav 1.7 IWB In Vitro Assay (IonWorks Barracuda); assay type: cell-based; settings: HEK293 cells stably transfected with human Nav 1.7; IonWorks Barracuda population patch-clamp; cells clamped to −20 mV for 4 minutes with compound; 26th pulse; read-out: hNav1.7 IWB IC50
How it was run: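 Population patch clamp of HEK293 cells stably expressing human Nav 1.7: 26 pulses to −20 mV (150 ms, 5 Hz) from −110 mV, then 4 min at −20 mV with compound, 3 s recovery at −110 mV and the train repeated. % inhibition of 26th-pulse peak current vs no compound; IC50 from concentration-response curves.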

T1 sequence (Q15858 whole entry): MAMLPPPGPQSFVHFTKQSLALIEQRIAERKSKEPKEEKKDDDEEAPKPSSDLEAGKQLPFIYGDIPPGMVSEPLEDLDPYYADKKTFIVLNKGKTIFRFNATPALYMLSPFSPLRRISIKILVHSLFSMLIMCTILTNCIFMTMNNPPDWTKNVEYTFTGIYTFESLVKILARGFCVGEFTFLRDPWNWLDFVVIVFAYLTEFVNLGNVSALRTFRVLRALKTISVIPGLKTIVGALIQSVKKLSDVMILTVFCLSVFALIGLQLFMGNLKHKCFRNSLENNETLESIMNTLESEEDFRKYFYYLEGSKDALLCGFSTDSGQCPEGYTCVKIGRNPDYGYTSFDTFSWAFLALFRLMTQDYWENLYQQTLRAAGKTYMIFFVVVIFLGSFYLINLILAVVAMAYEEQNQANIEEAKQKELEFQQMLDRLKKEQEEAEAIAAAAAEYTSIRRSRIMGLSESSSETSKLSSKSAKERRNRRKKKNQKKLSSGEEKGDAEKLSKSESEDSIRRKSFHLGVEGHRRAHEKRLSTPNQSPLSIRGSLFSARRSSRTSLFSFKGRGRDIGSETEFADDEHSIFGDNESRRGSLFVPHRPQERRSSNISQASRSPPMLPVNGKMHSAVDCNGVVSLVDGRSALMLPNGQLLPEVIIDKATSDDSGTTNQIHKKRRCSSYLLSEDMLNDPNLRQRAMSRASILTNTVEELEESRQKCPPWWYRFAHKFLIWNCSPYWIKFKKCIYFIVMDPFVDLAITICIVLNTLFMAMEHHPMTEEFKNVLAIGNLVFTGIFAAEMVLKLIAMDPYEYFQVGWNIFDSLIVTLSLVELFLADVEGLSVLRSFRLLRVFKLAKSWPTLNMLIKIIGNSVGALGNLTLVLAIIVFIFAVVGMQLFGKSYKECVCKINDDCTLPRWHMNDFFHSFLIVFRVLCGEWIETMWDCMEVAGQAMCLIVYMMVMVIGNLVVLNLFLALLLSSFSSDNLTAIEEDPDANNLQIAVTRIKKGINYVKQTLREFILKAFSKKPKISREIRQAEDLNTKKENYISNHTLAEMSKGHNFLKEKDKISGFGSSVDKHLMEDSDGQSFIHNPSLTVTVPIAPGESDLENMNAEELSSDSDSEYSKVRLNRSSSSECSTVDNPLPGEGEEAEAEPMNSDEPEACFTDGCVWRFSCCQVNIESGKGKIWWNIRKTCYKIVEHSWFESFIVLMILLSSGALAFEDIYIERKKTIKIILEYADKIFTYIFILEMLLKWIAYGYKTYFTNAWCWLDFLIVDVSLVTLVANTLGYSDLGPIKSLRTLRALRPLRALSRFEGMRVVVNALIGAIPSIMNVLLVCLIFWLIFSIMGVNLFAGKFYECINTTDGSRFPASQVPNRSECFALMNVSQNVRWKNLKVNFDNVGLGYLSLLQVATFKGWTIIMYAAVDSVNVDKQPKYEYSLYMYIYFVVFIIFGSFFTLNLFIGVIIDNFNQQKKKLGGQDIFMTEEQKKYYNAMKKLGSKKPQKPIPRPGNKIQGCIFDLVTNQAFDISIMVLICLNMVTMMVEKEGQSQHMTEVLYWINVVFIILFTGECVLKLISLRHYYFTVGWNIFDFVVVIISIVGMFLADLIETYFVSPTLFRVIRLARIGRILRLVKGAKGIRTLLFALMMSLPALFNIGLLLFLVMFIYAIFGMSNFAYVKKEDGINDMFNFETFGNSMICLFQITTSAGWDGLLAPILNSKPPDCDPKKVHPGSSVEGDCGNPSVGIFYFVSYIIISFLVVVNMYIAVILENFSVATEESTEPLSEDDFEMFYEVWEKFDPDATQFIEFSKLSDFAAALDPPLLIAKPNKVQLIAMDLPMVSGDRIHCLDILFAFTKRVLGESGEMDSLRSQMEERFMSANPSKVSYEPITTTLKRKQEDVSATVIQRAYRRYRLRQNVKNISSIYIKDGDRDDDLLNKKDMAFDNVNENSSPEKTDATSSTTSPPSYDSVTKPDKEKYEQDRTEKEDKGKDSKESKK

SMILES | IC50 (human Nav1.7 [1]) [nM] | IC50 (human Nav1.7 [2]) [nM]
COc1cc(-c2cccc(C3CC3)c2)c(F)cc1-n1c2c(ccc1=O)CN(S(=O)(=O)Nc1cccnn1)CC2 [Example 42, P-1-(3′-cyclopropyl-2-fluoro-5-methoxy-4-biphenylyl)-2-oxo-N-3-pyridazinyl-1,5,7,8-tetrahydro-1,6-naphthyridine-6(2H)-sulfonamide] | 76.6 | 7.8
COc1cc(-c2cc(C)ccc2Cl)c(F)cc1-n1c2c(ccc1=O)CN(S(=O)(=O)Nc1cccnn1)CC2 [Example 43, P-1-(2′-chloro-2-fluoro-5-methoxy-5′-methyl-4-biphenylyl)-2-oxo-N-3-pyridazinyl-1,5,7,8-tetrahydro-1,6-naphthyridine-6(2H)-sulfonamide] | 156 | 3.8
COc1cc(-c2ccc(F)c(F)c2)c(Cl)cc1-n1c2c(ccc1=O)CN(S(=O)(=O)Nc1ccon1)CC2 [Example 51, P-1-(2-chloro-3′,4′-difluoro-5-methoxy-4-biphenylyl)-N-3-isoxazolyl-2-oxo-1,5,7,8-tetrahydro-1,6-naphthyridine-6(2H)-sulfonamide] | 45.1 | < 2
COc1cc(-c2cc(OC)c(-n3c4c(ccc3=O)CN(S(=O)(=O)Nc3ccon3)CC4)cc2Cl)ccc1Cl [Example 52, P-1-(2,4′-dichloro-3′,5-dimethoxy-4-biphenylyl)-N-3-isoxazolyl-2-oxo-1,5,7,8-tetrahydro-1,6-naphthyridine-6(2H)-sulfonamide] | 22.9 | 2.8
COc1cc(-c2cc(F)cc(Cl)c2)c(Cl)cc1-n1c2c(ccc1=O)CN(S(=O)(=O)Nc1ccon1)CC2 [Example 53, P-1-(2,3′-dichloro-5′-fluoro-5-methoxy-4-biphenylyl)-N-3-isoxazolyl-2-oxo-1,5,7,8-tetrahydro-1,6-naphthyridine-6(2H)-sulfonamide] | 5.2 | 0.7
COc1cc(-c2cccc(C(F)(F)F)c2)c(Cl)cc1-n1c2c(ccc1=O)CN(S(=O)(=O)Nc1ccon1)CC2 [Example 54, P-1-(2-chloro-5-methoxy-3′-(trifluoromethyl)-4-biphenylyl)-N-3-isoxazolyl-2-oxo-1,5,7,8-tetrahydro-1,6-naphthyridine-6(2H)-sulfonamide] | 6.9 | 0.5
COc1ccc(Cl)cc1-c1cc(OC)c(-n2c3c(ccc2=O)CN(S(=O)(=O)Nc2cccnn2)CC3)cc1F [Example 59, P-1-(5′-chloro-2-fluoro-2′,5-dimethoxy-[1,1′-biphenyl]-4-yl)-2-oxo-N-(pyridazin-3-yl)-1,2,7,8-tetrahydro-1,6-naphthyridine-6(5H)-sulfonamide] | 48.1 | 6.5
COc1cc(-c2cc(Cl)cnc2OC)c(F)cc1-n1c2c(ccc1=O)CN(S(=O)(=O)Nc1cccnn1)CC2 [Example 60, P-1-(4-(5-chloro-2-methoxypyridin-3-yl)-5-fluoro-2-methoxyphenyl)-2-oxo-N-(pyridazin-3-yl)-1,2,7,8-tetrahydro-1,6-naphthyridine-6(5H)-sulfonamide] | 420 | 37.5
COc1cc(-c2ccc(Cl)cc2)c(F)cc1-n1c2c(ccc1=O)CN(S(=O)(=O)Nc1cccnn1)CC2 [Example 61, P-1-(4′-chloro-2-fluoro-5-methoxy-[1,1′-biphenyl]-4-yl)-2-oxo-N-(pyridazin-3-yl)-1,2,7,8-tetrahydro-1,6-naphthyridine-6(5H)-sulfonamide] | 195 | 24.1
COc1cc(-c2cccc(Cl)c2)c(F)cc1-n1c2c(ccc1=O)CN(S(=O)(=O)Nc1cccnn1)CC2 [Example 62, P-1-(3′-chloro-2-fluoro-5-methoxy-[1,1′-biphenyl]-4-yl)-2-oxo-N-(pyridazin-3-yl)-1,2,7,8-tetrahydro-1,6-naphthyridine-6(5H)-sulfonamide] | 75.8 | 8.6
COc1ccc(-c2cc(OC)c(-n3c4c(ccc3=O)CN(S(=O)(=O)Nc3cccnn3)CC4)cc2F)cc1Cl [Example 63, P-1-(3′-chloro-2-fluoro-4′,5-dimethoxy-[1,1′-biphenyl]-4-yl)-2-oxo-N-(pyridazin-3-yl)-1,2,7,8-tetrahydro-1,6-naphthyridine-6(5H)-sulfonamide] | 321 | 22.2
COc1cc(-c2cc(C(F)(F)F)cnc2OC)c(F)cc1-n1c2c(ccc1=O)CN(S(=O)(=O)Nc1cccnn1)CC2 [Example 64, P-1-(5-fluoro-2-methoxy-4-(2-methoxy-5-(trifluoromethyl)pyridin-3-yl)phenyl)-2-oxo-N-(pyridazin-3-yl)-1,2,7,8-tetrahydro-1,6-naphthyridine-6(5H)-sulfonamide] | 66.1 | 1.9
COc1cc(-c2cccc(Cl)c2OC)c(F)cc1-n1c2c(ccc1=O)CN(S(=O)(=O)Nc1cccnn1)CC2 [Example 65, P-1-(3′-chloro-2-fluoro-2′,5-dimethoxy-[1,1′-biphenyl]-4-yl)-2-oxo-N-(pyridazin-3-yl)-1,2,7,8-tetrahydro-1,6-naphthyridine-6(5H)-sulfonamide] | 251 | 8.5
COc1cc(-c2ccc(C(F)(F)F)cc2)c(F)cc1-n1c2c(ccc1=O)CN(S(=O)(=O)Nc1cccnn1)CC2 [Example 67, P-1-(2-fluoro-5-methoxy-4′-(trifluoromethyl)-[1,1′-biphenyl]-4-yl)-2-oxo-N-(pyridazin-3-yl)-1,2,7,8-tetrahydro-1,6-naphthyridine-6(5H)-sulfonamide] | 75.8 | 20.5
COc1cc(-c2cc(C)cc(Cl)c2)c(F)cc1-n1c2c(ccc1=O)CN(S(=O)(=O)Nc1cccnn1)CC2 [Example 69, P-1-(3′-chloro-2-fluoro-5-methoxy-5′-methyl-[1,1′-biphenyl]-4-yl)-2-oxo-N-(pyridazin-3-yl)-1,2,7,8-tetrahydro-1,6-naphthyridine-6(5H)-sulfonamide] | 22.8 | 16.9
COc1cc(Cl)cc(-c2cc(OC)c(-n3c4c(ccc3=O)CN(S(=O)(=O)Nc3cccnn3)CC4)cc2F)c1 [Example 70, P-1-(3′-chloro-2-fluoro-5,5′-dimethoxy-[1,1′-biphenyl]-4-yl)-2-oxo-N-(pyridazin-3-yl)-1,2,7,8-tetrahydro-1,6-naphthyridine-6(5H)-sulfonamide] | 20 | 6.2
COc1cc(-c2cccc(C(F)F)c2)c(F)cc1-n1c2c(ccc1=O)CN(S(=O)(=O)Nc1cccnn1)CC2 [Example 72, P-1-(3′-(difluoromethyl)-2-fluoro-5-methoxy-[1,1′-biphenyl]-4-yl)-2-oxo-N-(pyridazin-3-yl)-1,2,7,8-tetrahydro-1,6-naphthyridine-6(5H)-sulfonamide] | 265 | 15.1
COc1cc(-c2ccc(F)c(C)c2)c(F)cc1-n1c2c(ccc1=O)CN(S(=O)(=O)Nc1cccnn1)CC2 [Example 73, P-1-(2,4′-difluoro-5-methoxy-3′-methyl-[1,1′-biphenyl]-4-yl)-2-oxo-N-(pyridazin-3-yl)-1,2,7,8-tetrahydro-1,6-naphthyridine-6(5H)-sulfonamide] | 232 | 18
COc1ccc(C(F)(F)F)cc1-c1cc(OC)c(-n2c3c(ccc2=O)CN(S(=O)(=O)Nc2cccnn2)CC3)cc1F [Example 74, P-1-(2-fluoro-2′,5-dimethoxy-5′-(trifluoromethyl)-[1,1′-biphenyl]-4-yl)-2-oxo-N-(pyridazin-3-yl)-1,2,7,8-tetrahydro-1,6-naphthyridine-6(5H)-sulfonamide] | 29.4 | 7.7
COc1cc(-c2cc(C)cc(C(F)(F)F)c2)c(F)cc1-n1c2c(ccc1=O)CN(S(=O)(=O)Nc1cccnn1)CC2 [Example 75, P-1-(2-fluoro-5-methoxy-3′-methyl-5′-(trifluoromethyl)-[1,1′-biphenyl]-4-yl)-2-oxo-N-(pyridazin-3-yl)-1,2,7,8-tetrahydro-1,6-naphthyridine-6(5H)-sulfonamide] | 41.3 | 11.6
COc1cc(OC(F)(F)F)cc(-c2cc(OC)c(-n3c4c(ccc3=O)CN(S(=O)(=O)Nc3cccnn3)CC4)cc2F)c1 [Example 76, P-1-(2-fluoro-3′,5-dimethoxy-5′-(trifluoromethoxy)-[1,1′-biphenyl]-4-yl)-2-oxo-N-(pyridazin-3-yl)-1,2,7,8-tetrahydro-1,6-naphthyridine-6(5H)-sulfonamide] | 38.8 | 4.2
COc1cc(-c2cc(C)cc(OC(F)(F)F)c2)c(F)cc1-n1c2c(ccc1=O)CN(S(=O)(=O)Nc1cccnn1)CC2 [Example 78, P-1-(2-fluoro-5-methoxy-3′-methyl-5′-(trifluoromethoxy)-[1,1′-biphenyl]-4-yl)-2-oxo-N-(pyridazin-3-yl)-1,2,7,8-tetrahydro-1,6-naphthyridine-6(5H)-sulfonamide] | 44.5 | 5.3
COc1cc(-c2cc(F)cc(F)c2)c(F)cc1-n1c2c(ccc1=O)CN(S(=O)(=O)Nc1ccncn1)CC2 [Example 88, P-2-oxo-N-(pyrimidin-4-yl)-1-(2,3′,5′-trifluoro-5-methoxy-[1,1′-biphenyl]-4-yl)-1,2,7,8-tetrahydro-1,6-naphthyridine-6(5H)-sulfonamide] | 475 | 31.2
